What was measured:
Assay type in all cases: cell-based
EGFR WT (Ba/F3 cells) = molecular target: T1, EGFR WT (Ba/F3 cells) (Homo sapiens, UniProt P00533); assay: Inhibitor activity on EGFR-dependent cell growth (CellTiter-Glo, 72 h), Ba/F3 EGFR WT; details: read-out: BaF3 WT IC50
T1 construct: expressed in transfected cells; host or cells: Ba/F3 (murine pro-B cells), retroviral transduction, puromycin selection, maintained with EGF
Method in brief: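 This growth assay used Ba/F3 cells that depend on wild-type EGFR and are kept in EGF without IL3. Compounds were made up as 10 mM DMSO stocks and diluted 3-fold over 10 points. 120 nL went onto 600 cells/well. After 72 hours, 40 μL CellTiter-Glo was added and luminescence read on EnVision after 30 min.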

[1] = molecular target: T2, EGFR exon 20 NPG Ins D770_N771 (Ba/F3 cells) (Homo sapiens, UniProt P00533, INS770NPG); assay: Inhibitor activity on EGFR phosphorylation (pEGFR AlphaLISA, 2 h), Ba/F3 EGFR exon 20 NPG Ins
T2 construct: expressed in transfected cells; host or cells: Ba/F3 (murine pro-B cells), retroviral transduction, puromycin selection, IL3-independent pool
Description: Example B. Inhibitor Activity on EGFR phosphorylation (pEGFR)
EGFR mutant Ba/F3 cells were generated by transduction with retrovirus containing vectors expressing EGFR L858R, EGFR exon 19del, EGFR L858R/C797S, EGFR exon 20 NPG Ins D770_N771, EGFR exon 20 ASV Ins V769_D770, or EGFR exon 20 SVD Ins D770_N771 genes along with a puromycin selection marker. Transduced cells are selected with puromycin for 7 days and are then be transferred into culture media without Interleukin 3 (IL3). Surviving cells are confirmed to express EGFR by Western blot and maintained as a pool. CUTO14 cells were obtained from Dr. Robert C. Doebele at the University of Colorado. The IC50 date are included in Table 6 and Table 7.
1.1 Cells are harvested from flask into cell culture medium and the cell number counted.
1.2 Cells are diluted with culture medium to the desired density and 40 μL of cell suspension is added into each well of 384-well cell culture plate and the seeding density is 50K cells/well (Ba/F3) or 12.5K cells/well (CUTO14).
2 Compound Preparation and Treatment
2.1 Test compounds are dissolved to 10 mM in a DMSO stock solution. 45 μL of stock solution is transferred to a 384 polypropylene plate (pp-plate). Perform 3-fold, 10-point dilution via transferring 15 μL compound into 30 μL DMSO using a TECAN (EVO200) liquid handler.
2.2 Spin plates at room temperature at 1,000 RPM for 1 minute.
2.3 Transfer 5 nL of diluted compound from compound source plate into the cell plate.
2.4 After compound treatment for 2 hours, perform pEGFR detection by AlphaLISA for compound treatment plates as described in “Detection” section.
3 Detection by pEGFR AlphaLISA (Perkin-Elmer)
3.1 Plates are removed from incubators and equilibrated at room temperature for 10 minutes, and media was removed
3.2 10 μL of lysis buffer is added and plates shaken at 600 rpm for 1 hr.
3.3 Prepare acceptor mix just before use and dispense 5 μL of acceptor mix to all the wells. Shake 350 rpm for Ihr in the dark
3.4 Prepare donor mix under low light conditions prior to use. Dispense 5 μL of donor mix to all the wells. Mix well on the shaker, seal and wrap in aluminum foil and incubate 1.5 hrs at room temperature in the dark
3.5 Transfer 18.5 μL mixture to OptiPlate 384, and read using an Envision. The IC50 date were included in Table 6 and Table 7.

[2] = molecular target: T3, EGFR exon 20 FQEA Ins A763_V764 (Ba/F3 cells) (Homo sapiens, UniProt P00533, INS763FQEA); assay: Inhibitor activity on EGFR-dependent cell growth (CellTiter-Glo, 72 h), Ba/F3 EGFR exon 20 FQEA Ins; details: read-out: BaF3 FQEA IC50
T3 construct: expressed in transfected cells; host or cells: Ba/F3 (murine pro-B cells), retroviral transduction, puromycin selection, IL3-independent pool
Method in brief: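 Compounds, serially diluted 3-fold over 10 points in DMSO and added at 120 nL per well, act on Ba/F3 EGFR-mutant cells for 72 h. Seeding is 800 (exon 19del, FQEA), 600 (L858R/C797S) or 400 (L858R) cells/well. CTG luminescence is fitted with a four-parameter logistic curve to give IC50.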

[3] = molecular target: T4, EGFR exon 20 SVD Ins D770_N771 (Ba/F3 cells) (Homo sapiens, UniProt P00533, INS770SVD); assay: Inhibitor activity on EGFR-dependent cell growth (CellTiter-Glo, 72 h), Ba/F3 EGFR exon 20 SVD Ins; details: read-out: BaF3 SVD IC50
T4 construct: expressed in transfected cells; host or cells: Ba/F3 (murine pro-B cells), retroviral transduction, puromycin selection, IL3-independent pool
Method in brief: (§1)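 IC50s derive from a sigmoidal dose–response fit of CellTiter-Glo signal. The signal was normalised between […]-treated cells and cell-free medium. Ba/F3 mutant-EGFR cells, seeded at 400–800/well depending on the line, had 72 h of exposure to a 10-point, 3-fold compound series.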

[4] = molecular target: T5, EGFR exon 20 ASV Ins V769_D770 (Ba/F3 cells) (Homo sapiens, UniProt P00533, INS769ASV); assay: Inhibitor activity on EGFR-dependent cell growth (CellTiter-Glo, 72 h), Ba/F3 EGFR exon 20 ASV Ins; details: read-out: BaF3 ASV IC50
T5 construct: expressed in transfected cells; host or cells: Ba/F3 (murine pro-B cells), retroviral transduction, puromycin selection, IL3-independent pool
Method in brief: as §1

[5] = molecular target: T2, EGFR exon 20 NPG Ins D770_N771 (Ba/F3 cells); assay: Inhibitor activity on EGFR-dependent cell growth (CellTiter-Glo, 72 h), Ba/F3 EGFR exon 20 NPG Ins; details: read-out: BaF3 NPG IC50
Method in brief: as §1

T1 sequence (P00533 25-1210): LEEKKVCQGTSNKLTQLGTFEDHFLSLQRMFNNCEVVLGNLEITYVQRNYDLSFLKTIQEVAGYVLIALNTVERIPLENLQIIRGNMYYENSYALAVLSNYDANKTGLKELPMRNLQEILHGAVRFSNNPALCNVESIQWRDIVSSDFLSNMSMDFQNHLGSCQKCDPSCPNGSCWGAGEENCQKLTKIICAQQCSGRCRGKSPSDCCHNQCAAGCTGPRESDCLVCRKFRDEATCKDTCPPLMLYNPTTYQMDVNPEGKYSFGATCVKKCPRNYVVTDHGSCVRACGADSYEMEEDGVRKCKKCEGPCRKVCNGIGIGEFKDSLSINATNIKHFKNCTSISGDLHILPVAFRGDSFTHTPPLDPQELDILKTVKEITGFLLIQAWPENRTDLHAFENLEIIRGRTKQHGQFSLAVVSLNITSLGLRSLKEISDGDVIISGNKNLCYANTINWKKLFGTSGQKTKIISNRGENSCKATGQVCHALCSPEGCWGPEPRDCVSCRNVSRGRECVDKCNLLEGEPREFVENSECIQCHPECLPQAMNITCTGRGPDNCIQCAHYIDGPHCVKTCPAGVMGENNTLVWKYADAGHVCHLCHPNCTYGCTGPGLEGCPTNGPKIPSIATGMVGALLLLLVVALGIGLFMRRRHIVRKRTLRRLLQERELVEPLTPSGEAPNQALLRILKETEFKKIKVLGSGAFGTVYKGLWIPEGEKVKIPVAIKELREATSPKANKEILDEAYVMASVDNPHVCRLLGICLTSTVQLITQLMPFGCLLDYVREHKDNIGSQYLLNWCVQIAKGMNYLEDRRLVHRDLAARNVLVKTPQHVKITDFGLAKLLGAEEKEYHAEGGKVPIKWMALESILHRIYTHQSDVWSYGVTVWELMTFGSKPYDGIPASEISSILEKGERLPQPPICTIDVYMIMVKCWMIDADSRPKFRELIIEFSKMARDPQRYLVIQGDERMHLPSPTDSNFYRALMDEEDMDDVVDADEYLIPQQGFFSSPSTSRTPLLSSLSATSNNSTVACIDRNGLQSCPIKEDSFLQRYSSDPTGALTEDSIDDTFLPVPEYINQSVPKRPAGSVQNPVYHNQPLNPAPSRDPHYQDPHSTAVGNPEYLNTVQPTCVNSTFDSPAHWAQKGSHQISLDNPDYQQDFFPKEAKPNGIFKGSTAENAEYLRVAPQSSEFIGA
T5 sequence (P00533 with tags, fused parts or gaps INS769ASV): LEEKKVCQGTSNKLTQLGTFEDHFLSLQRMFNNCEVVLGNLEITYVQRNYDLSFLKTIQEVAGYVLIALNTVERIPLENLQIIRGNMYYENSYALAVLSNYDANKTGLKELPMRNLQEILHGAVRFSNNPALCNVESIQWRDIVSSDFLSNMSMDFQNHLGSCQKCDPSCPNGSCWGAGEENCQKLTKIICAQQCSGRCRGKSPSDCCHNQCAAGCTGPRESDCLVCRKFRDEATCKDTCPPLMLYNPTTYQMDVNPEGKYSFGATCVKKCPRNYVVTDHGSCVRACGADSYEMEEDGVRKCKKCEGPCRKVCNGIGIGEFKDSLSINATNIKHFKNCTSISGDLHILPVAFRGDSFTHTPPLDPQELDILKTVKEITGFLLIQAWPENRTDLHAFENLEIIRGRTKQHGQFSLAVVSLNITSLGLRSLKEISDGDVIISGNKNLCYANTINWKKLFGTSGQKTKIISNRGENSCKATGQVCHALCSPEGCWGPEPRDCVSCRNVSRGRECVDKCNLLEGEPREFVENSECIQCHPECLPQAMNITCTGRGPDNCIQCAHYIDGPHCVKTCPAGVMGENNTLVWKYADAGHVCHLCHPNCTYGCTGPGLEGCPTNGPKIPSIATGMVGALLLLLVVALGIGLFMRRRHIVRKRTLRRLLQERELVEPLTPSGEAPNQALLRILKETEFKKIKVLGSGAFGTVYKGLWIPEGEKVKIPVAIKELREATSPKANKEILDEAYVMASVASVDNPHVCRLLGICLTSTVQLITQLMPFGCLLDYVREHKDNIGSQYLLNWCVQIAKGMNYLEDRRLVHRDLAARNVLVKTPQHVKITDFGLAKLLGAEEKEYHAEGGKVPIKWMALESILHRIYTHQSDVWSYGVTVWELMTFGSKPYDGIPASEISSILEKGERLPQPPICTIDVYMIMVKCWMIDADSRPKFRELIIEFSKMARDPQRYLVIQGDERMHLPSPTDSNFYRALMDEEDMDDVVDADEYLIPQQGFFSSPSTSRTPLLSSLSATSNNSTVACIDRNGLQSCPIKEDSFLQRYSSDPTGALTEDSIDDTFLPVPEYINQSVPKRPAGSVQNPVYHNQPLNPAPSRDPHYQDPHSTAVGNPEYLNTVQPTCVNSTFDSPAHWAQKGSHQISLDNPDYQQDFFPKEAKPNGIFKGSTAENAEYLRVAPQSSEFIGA
T3 sequence (P00533 with tags, fused parts or gaps INS763FQEA): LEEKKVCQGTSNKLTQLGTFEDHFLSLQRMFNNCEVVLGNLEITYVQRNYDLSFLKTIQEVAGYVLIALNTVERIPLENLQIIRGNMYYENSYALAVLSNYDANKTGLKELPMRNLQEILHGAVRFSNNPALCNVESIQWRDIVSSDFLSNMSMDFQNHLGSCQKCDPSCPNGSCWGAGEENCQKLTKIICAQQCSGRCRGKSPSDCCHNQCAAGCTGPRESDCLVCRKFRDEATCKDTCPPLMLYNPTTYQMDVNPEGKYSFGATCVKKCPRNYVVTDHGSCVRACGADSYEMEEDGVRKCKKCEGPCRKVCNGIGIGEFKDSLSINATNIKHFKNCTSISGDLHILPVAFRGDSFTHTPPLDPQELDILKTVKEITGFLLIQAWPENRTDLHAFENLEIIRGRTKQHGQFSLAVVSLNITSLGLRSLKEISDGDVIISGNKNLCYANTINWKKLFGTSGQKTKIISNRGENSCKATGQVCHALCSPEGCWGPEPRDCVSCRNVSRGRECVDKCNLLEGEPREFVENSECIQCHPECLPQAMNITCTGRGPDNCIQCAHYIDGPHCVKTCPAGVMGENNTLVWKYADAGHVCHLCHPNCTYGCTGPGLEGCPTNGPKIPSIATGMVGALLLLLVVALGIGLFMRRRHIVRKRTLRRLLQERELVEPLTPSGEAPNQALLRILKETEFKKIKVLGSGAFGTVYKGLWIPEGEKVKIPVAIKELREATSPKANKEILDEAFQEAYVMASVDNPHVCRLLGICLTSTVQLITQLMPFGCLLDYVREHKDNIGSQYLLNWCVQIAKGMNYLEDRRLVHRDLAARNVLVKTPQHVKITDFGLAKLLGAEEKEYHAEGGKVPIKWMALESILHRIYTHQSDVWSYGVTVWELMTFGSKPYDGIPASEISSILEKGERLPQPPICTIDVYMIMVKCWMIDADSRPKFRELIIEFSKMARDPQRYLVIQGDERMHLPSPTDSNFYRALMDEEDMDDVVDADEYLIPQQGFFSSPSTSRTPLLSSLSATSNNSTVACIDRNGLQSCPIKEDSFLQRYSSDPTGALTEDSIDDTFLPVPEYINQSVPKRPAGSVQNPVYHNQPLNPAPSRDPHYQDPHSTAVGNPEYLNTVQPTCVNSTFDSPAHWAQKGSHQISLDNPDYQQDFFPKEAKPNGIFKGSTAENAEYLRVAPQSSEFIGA
T4 sequence (P00533 with tags, fused parts or gaps INS770SVD): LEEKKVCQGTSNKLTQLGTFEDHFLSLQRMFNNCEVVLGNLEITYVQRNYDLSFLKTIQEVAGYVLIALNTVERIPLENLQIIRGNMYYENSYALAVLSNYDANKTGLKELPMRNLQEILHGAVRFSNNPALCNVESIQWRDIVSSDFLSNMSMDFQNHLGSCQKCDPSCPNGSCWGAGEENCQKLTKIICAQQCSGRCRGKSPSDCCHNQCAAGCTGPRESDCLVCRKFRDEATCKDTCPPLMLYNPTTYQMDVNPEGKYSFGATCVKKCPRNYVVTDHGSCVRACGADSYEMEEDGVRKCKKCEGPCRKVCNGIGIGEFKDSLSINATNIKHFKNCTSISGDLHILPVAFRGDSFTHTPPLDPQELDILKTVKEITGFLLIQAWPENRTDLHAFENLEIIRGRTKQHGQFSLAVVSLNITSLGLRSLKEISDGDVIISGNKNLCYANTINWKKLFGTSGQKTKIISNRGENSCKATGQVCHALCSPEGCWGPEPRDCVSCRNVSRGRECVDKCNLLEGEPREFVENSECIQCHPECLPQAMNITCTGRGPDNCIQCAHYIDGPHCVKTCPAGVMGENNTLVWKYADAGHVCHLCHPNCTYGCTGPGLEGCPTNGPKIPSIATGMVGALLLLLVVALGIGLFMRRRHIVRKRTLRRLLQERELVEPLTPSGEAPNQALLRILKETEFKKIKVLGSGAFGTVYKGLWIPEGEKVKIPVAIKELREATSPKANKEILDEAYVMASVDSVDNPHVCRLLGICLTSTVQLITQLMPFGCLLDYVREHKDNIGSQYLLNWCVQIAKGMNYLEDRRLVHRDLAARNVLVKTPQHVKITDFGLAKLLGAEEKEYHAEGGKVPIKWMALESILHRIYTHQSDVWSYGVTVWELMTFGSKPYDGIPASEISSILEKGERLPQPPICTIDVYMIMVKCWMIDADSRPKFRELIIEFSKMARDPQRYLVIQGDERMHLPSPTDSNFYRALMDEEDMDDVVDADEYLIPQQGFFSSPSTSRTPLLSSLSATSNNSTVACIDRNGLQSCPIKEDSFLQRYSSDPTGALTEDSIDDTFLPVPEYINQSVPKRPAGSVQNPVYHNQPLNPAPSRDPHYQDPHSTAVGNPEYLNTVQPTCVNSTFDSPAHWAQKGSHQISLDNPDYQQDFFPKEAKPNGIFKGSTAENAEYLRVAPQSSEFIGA

Question: Which results are given for `COc1cc2nccc(-c3[nH]c4c(c3Nc3cccc(Cl)c3OC)C(=O)NCC4)c2nc1OC` [compound 730, 3-[(3-chloro-2-methoxyphenyl)amino]-2-(6,7-dimethoxy-1,5-naphthyridin-4-yl)-1H,5H,6H,7H-pyrrolo[3,2-c]pyridin-4-one]?
Answer: IC50 (EGFR WT (Ba/F3 cells)): < 100 nM; IC50 [1]: < 100 nM; IC50 [2]: < 100 nM; IC50 [3]: < 100 nM; IC50 [4]: < 100 nM; IC50 [5]: < 100 nM

Question: Which results are given for `C=CC(=O)N1CCC(Oc2nc3c(-c4[nH]c5c(c4Nc4cccc(Cl)c4OC)C(=O)NCC5)ccnc3cc2OC)CC1` [Compound 731, 3-[(3-chloro-2-methoxyphenyl)amino]-2-(7-methoxy-6-{[1-(prop-2-enoyl)piperidin-4-yl]oxy}-1,5-naphthyridin-4-yl)-1H,5H,6H,7H-pyrrolo[3,2-c]pyridin-4-one]?
Answer: IC50 (EGFR WT (Ba/F3 cells)): < 100 nM; IC50 [1]: < 100 nM; IC50 [3]: < 100 nM; IC50 [4]: < 100 nM; IC50 [5]: < 100 nM

Question: What does the source list for `COc1c(F)cccc1Nc1c(-c2ccnc3cccnc23)[nH]c2c1C(=O)NCC2` [compound 442]?
Answer: IC50 (EGFR WT (Ba/F3 cells)): 100 to 1000 nM; IC50 [1]: < 100 nM; IC50 [2]: < 100 nM; IC50 [3]: < 100 nM; IC50 [4]: < 100 nM; IC50 [5]: < 100 nM

Question: `COc1c(Cl)cccc1Nc1c(-c2ccnc3cnc(OC4COC4)nc23)[nH]c2c1C(=O)NCC2` [compound 441] was tested. Which IC50 (EGFR WT (Ba/F3 cells)) did it give?
Answer: Its IC50 is 100 to 1000 nM.

Question: And the IC50 [1]?
Answer: Its IC50 is < 100 nM.

Question: What about the IC50 [2] of the same compound?
Answer: The IC50 was < 100 nM.

Question: What about the IC50 [3] of the same compound?
Answer: Its IC50 is < 100 nM.

Question: And the IC50 [4]?
Answer: Its IC50 is < 100 nM.

Question: And the IC50 [5]?
Answer: The IC50 was < 100 nM.

Question: How did the IC50 (EGFR WT (Ba/F3 cells)) turn out when `COc1c(F)cccc1Nc1c(-c2ncnc3sccc23)[nH]c2c1C(=O)NCC2` [compound 138] was run?
Answer: The IC50 was > 1000 nM.

Question: What about the IC50 [1] of the same compound?
Answer: Its IC50 is > 1000 nM.

Question: And the IC50 [5]?
Answer: Its IC50 is > 1000 nM.

Question: With `COc1ccc2nccc(-c3[nH]c4c(c3Nc3cccc(F)c3C)C(=O)NCC4)c2n1` [Compound 684, 3-[(3-fluoro-2-methylphenyl)amino]-2-(6-methoxy-1,5-naphthyridin-4-yl)-1H,5H,6H,7H-pyrrolo[3,2-c]pyridin-4-one] as the compound, how does the IC50 (EGFR WT (Ba/F3 cells)) read?
Answer: The IC50 was 100 to 1000 nM.

Question: And the IC50 [1]?
Answer: The IC50 was < 100 nM.

Question: And the IC50 [2]?
Answer: Its IC50 is < 100 nM.

Question: What about the IC50 [3] of the same compound?
Answer: Its IC50 is < 100 nM.

Question: What about the IC50 [4] of the same compound?
Answer: Its IC50 is < 100 nM.

Question: What about the IC50 [5] of the same compound?
Answer: The IC50 was < 100 nM.

Question: `COc1c(Cl)cccc1Nc1c(-c2ccnc3ccc(OCC4CC(F)(F)C4)nc23)[nH]c2c1C(=O)NCC2` [compound 757, 3-[(3-chloro-2-methoxyphenyl)amino]-2-[6-[(3,3-difluorocyclobutyl)methoxy]-1,5-naphthyridin-4-yl]-1H,5H,6H,7H-pyrrolo[3,2-c]pyridin-4-one] was tested. Which IC50 (EGFR WT (Ba/F3 cells)) did it give?
Answer: The IC50 was 100 to 1000 nM.

Question: What about the IC50 [1] of the same compound?
Answer: The IC50 was < 100 nM.

Question: And the IC50 [2]?
Answer: The IC50 was < 100 nM.

Question: What about the IC50 [3] of the same compound?
Answer: The IC50 was < 100 nM.

Question: What about the IC50 [4] of the same compound?
Answer: The IC50 was < 100 nM.

Question: And the IC50 [5]?
Answer: Its IC50 is 100 to 1000 nM.

Question: What does the source list for `C=CC(=O)N1CCC2(CC1)CNC(=O)c1c2[nH]c(-c2ccncc2F)c1Nc1cccc(F)c1CC` [Compound 557, 3′-[(2-ethyl-3-fluorophenyl)amino]-2′-(3-fluoropyridin-4-yl)-1-(prop-2-enoyl)-5′,6′-dihydro-1′H-spiro[piperidine-4,7′-pyrrolo[3,2-c]pyridin]-4′-one]?
Answer: IC50 (EGFR WT (Ba/F3 cells)): < 100 nM; IC50 [1]: < 100 nM; IC50 [3]: < 100 nM; IC50 [4]: < 100 nM; IC50 [5]: < 100 nM

Question: For `COc1c(F)cccc1Nc1c(-c2ncnc3[nH]ncc23)[nH]c2c1C(=O)NCC2` [Compound 158, 3-((3-fluoro-2-methoxyphenyl)amino)-2-(1H-pyrazolo[3,4-d]pyrimidin-4-yl)-1,5,6,7-tetrahydro-4H-pyrrolo[3,2-c]pyridin-4-one], which IC50 (EGFR WT (Ba/F3 cells)) is on record?
Answer: Its IC50 is > 1000 nM.

Question: What about the IC50 [1] of the same compound?
Answer: Its IC50 is 100 to 1000 nM.

Question: And the IC50 [5]?
Answer: The IC50 was > 1000 nM.

— patent US20240101576A1, “HETEROCYCLIC INHIBITORS OF EGFR AND/OR HER2, FOR USE IN THE TREATMENT OF CANCER” (Scorpion Therapeutics, Inc., priority 2020, published 2024)
